Measured values from US10689394B2, “Thieno[2,3-b]pyridine derivative, quinoline derivative, and use thereof” (The University of Tokyo, priority 2016, dated 2020).

Target: T1, binding between ALS-related mutant SOD1 (Flag-SOD1 G93A) and Derlin-1 (Derlin-1-HA) (Homo sapiens, UniProt P00441+Q9BUN8, G94A)
T1 construct: expressed in transfected cells; host or cells: HEK293A
Assay: Cell-based co-immunoprecipitation assay of mutant SOD1 (G93A)-Derlin-1 binding
Design: key to Activity value (score): a compound exhibiting no inhibitory activity is set at 0; a compound exhibiting inhibitory activity is set at 1; a compound exhibiting significant inhibitory activity is set at 2; a compound having higher inhibitory activity than the compound of Example 1 is set at 3
Details: 0.625 μM, 1.25 μM, 2.5 μM and 5 μM added to HEK293A cell culture; FIG. 1
Method: As cells, human embryonic kidney-derived, Human Embryonic Kidney 293A (HEK293A) cells were used. The cells were cultured in High Glucose Dulbecco's modified Eagle's medium (DMEM: 4.5 mg/ml glucose, Sigma) supplemented with complement-inactivated 10% fetal bovine serum (FBS, Vitromex) and 100 units/mL Penicillin G (Meiji), which was placed in an incubator set at conditions of 37° C. and 5% CO2.
Transfection into the HEK293A cells was carried out using PEI-Max (Polyscience) at a ratio of 3 μL of PEI-Max to 1 μg of plasmid. DMEM was mixed with PEI-Max, and the mixture was then left at rest for 5 minutes. Thereafter, the reaction mixture was added to the plasmid DNA dissolved in DMEM, and the thus obtained mixture was further left at rest for 15 minutes. After seeding, the culture was carried out for 12 to 24 hours, and the resultant was then added to a culture medium of cells, in which the medium had been exchanged with DMEM supplemented only with 10% FBS.
pcDNA3.0-Derlin-1-HA, pcDNA3.0-Flag-SOD1 G93A, and 123 types of other mutants.
In the lysis of HEK293A cells for use in a co-immunoprecipitation experiment, an IP lysis buffer (20 mM Tris-HCl (pH 7.5), 150 mM NaCl, 10 mM EDTA (pH 8.0), 1% Triton-X 100, 5 μg/mL leupeptin, and 1 mM phenylmethylsulfonyl fluoride) was used.
After the transfection on a 24-well plate, the cells were cultured for 12 hours or 24 hours, and the obtained cell culture was exchanged with 200 μL of medium. Thereafter, 1% DMSO or various types of compounds having each different concentration were added into the culture. Thirty-six hours or twenty-four hours later, the cells were incubated in the IP lysis buffer (300 μL/well) at 4° C. for 25 minutes, so that the cells were lysed. The cell lysate was centrifuged at 4° C. at 15000 rpm for 10 minutes, and a supernatant was then recovered. To this supernatant, Anti-Flag M2 affinity gel was added in a liquid amount of 20 μL, and they were allowed to react with each other by subjecting the obtained mixture to inversion mixing at 4° C. for 25 minutes. After completion of the reaction, a supernatant was removed, and the residue was washed twice with High salt wash buffer (1% Triton X 100, 500 mM NaCl, 20 mM Tris-HCl (pH 7.5), and 5 mM EGTA), and was then washed once with Low salt wash buffer (150 mM NaCl, 20 mM Tris-HCl (pH 7.5), and 5 mM EGTA). Finally, 50 μL of a 2×SDS sample buffer was added to the resultant, and the obtained mixture was then boiled at 98° C. for 3 minutes to obtain an SDS-PAGE sample. Regarding the lysate, a 2×SDS sample buffer was added in an amount equal to the supernatant, and the obtained mixture was then boiled at 98° C. for 3 minutes to obtain an SDS-PAGE sample.
After completion of SDS-PAGE, a protein was transferred from the gel into a polyvinylidene difluoride membrane (PVDF) ([…], Pall), and was then blocked with TBS-T (150 mM NaCl, 50 mM Tris-HCl (pH 8.0), and 0.05% Tween 20) supplemented with 5% skimmed milk at room temperature for 2 hours or more. Thereafter, a primary antibody diluted with TBS-T supplemented with 5% bovine serum albumin and 0.1% NaN3 was allowed to bind to each molecule on the PVDF membrane at 4° C. for 12 hours or more. After completion of the reaction, a secondary antibody (HRP-linked 2nd antibody) diluted with TBS-T supplemented with 5% skimmed milk was allowed to bind to the primary antibody at room temperature for 1 hour. Thereafter, the resultant was washed with TBS-T for 15 minutes, 3 or more times, and detection was then carried out using an enhanced chemiluminescence (ECL) system.
With regard to the compounds of the present invention (Example Compound 1 to Example Compound 47), whether or not the present compound can inhibit the binding between ALS-related mutant SOD1 and Derlin-1 in a cell by being added into a cell culture solution was examined according to a co-immunoprecipitation experiment. […]

T1 sequence (P00441 whole entry G94A, species assumed): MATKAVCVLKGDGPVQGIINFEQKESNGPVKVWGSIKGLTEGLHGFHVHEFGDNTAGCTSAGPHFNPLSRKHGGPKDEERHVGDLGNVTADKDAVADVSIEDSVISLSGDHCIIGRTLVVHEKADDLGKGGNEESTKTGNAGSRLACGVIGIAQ
T1 sequence (Q9BUN8 whole entry, species assumed, stated change not applied): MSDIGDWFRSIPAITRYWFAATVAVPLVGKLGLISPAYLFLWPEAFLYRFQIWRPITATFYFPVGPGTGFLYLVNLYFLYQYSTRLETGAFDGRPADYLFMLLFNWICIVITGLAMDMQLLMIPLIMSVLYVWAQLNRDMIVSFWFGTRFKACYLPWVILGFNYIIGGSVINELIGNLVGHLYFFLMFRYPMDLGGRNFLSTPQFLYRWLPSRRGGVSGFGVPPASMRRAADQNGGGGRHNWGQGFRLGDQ

Compound	binding between mutant SOD1 and Derlin-1 (co-precipitated Derlin-1, IB:HA band)
Nc1c(C(=O)Nc2ccncc2)sc2nc(-c3cccnc3)ccc12 [Example 4, 3-amino-N-(4-pyridinyl)-6-(3-pyridinyl)thieno[2,3-b]pyridine-2-carboxamide]	the binding between mutant SOD1 and Derlin-1 was inhibited

Same assay, conditions: assay concentration 2.6 μM; HEK293A cells overexpressing Flag-SOD1 G93A and Derlin-1-HA

Activity value (score)	Compound
1	Nc1c(C(=O)Nc2ccc(-c3cc(C(F)(F)F)cc(C(F)(F)F)c3)cc2)sc2nc(-c3ccncc3)ccc12 [Example 7]
1	Nc1c(C(=O)Nc2ccncc2)sc2nc(-c3ccccn3)ccc12 [Example 6, 3-amino-N-(4-pyridinyl)-6-(2-pyridinyl)thieno[2,3-b]pyridine-2-carboxamide]

Same assay, conditions: assay concentration 5 μM; HEK293A cells overexpressing Flag-SOD1 G93A and Derlin-1-HA

Activity value (score)	Compound
2	Nc1c(C(=O)Nc2ccncc2)sc2nc(-c3cccnc3)ccc12 [Example 4, 3-amino-N-(4-pyridinyl)-6-(3-pyridinyl)thieno[2,3-b]pyridine-2-carboxamide]
1	C=CCN(C(=O)c1sc2nc(-c3ccncc3)ccc2c1N)c1cc(F)ccc1F [Example 8, N-allyl-3-amino-N-(2,5-difluorophenyl)-6-(4-pyridinyl)thieno[2,3-b]pyridine-2-carboxamide]

Same assay, conditions: assay concentration 20 μM; HEK293A cells overexpressing Flag-SOD1 G93A and Derlin-1-HA

Compound	Activity value (score)
C=CCN(C(=O)c1sc2nc(-c3cccnc3)ccc2c1N)c1cc(F)ccc1C [Example 18, N-allyl-3-amino-N-(5-fluoro-2-methylphenyl)-6-(3-pyridinyl)thieno[2,3-b]pyridine-2-carboxamide]	2
Nc1c(C(=O)Nc2cccc(C(F)(F)F)c2)sc2nc(-c3ccncc3)ccc12 [Example 31, 3-amino-6-(4-pyridinyl)-N-(3-(trifluoromethyl)phenyl)thieno[2,3-b]pyridine-2-carboxamide]	1
Nc1c(C(=O)Nc2ccncc2)sc2nc(-c3cncnc3)ccc12 [Example 33, 3-amino-N-(4-pyridinyl)-6-(5-pyrimidinyl)thieno[2,3-b]pyridine-2-carboxamide]	1
C=CCN(C(=O)c1sc2nc(-c3ccncc3)ccc2c1N)c1cccc(S(F)(F)(F)(F)F)c1 [Example 23, N-allyl-3-amino-N-(3-(pentafluoro-λ^6-sulfanyl)phenyl)-6-(4-pyridinyl)thieno[2,3-b]pyridine-2-carboxamide]	2
COc1ccc(N(CC=C(C)C)C(=O)c2sc3nc(-c4ccncc4)ccc3c2N)cc1 [Example 46, 3-amino-N-(4-methoxyphenyl)-N-prenyl-6-(4-pyridinyl)thieno[2,3-b]pyridine-2-carboxamide]	2
Nc1c(C(=O)Nc2ccncc2)sc2nc(-c3ccncc3)ccc12 [Example 32, 3-amino-N-(4-pyridinyl)-6-(4-pyridinyl)thieno[2,3-b]pyridine-2-carboxamide]	1
CC(C)=CCN(C(=O)c1sc2nc(-c3ccncc3)ccc2c1N)c1ccc(C(C)(C)C)cc1 [Example 43, 3-amino-N-(4-tert-butylphenyl)-N-(3-methylbut-2-en-1-yl)-6-(4-pyridinyl)thieno[2,3-b]pyridine-2-carboxamide]	1
Nc1c(C(=O)Nc2ccc(-c3cc(C(F)(F)F)cc(C(F)(F)F)c3)cc2)sc2nc(-c3cccnc3)ccc12 [Example 30, 3-amino-N-(3′,5′-bis(trifluoromethyl)-[1,1′-biphenyl]-4-yl)-6-(3-pyridinyl)thieno[2,3-b]pyridine-2-carboxamide]	1
C#CCOC/C=C\CN(C(=O)c1sc2nc(-c3cccnc3)ccc2c1N)c1ccccc1 [Example 36]	1
C#CCCCOCC=CCN(C(=O)c1sc2nc(-c3cccnc3)ccc2c1N)c1ccccc1 (stereo in doubt) [Example 38, 3-amino-N-((E)-4-(pent-4-ynyloxy)but-2-enyl)-N-phenyl-6-(3-pyridinyl)thieno[2,3-b]pyridine-2-carboxamide]	2
C=CCN(C(=O)c1sc2nc(-c3cccnc3)ccc2c1N)c1ccc(F)cc1F [Example 15, N-allyl-3-amino-N-(2,4-difluorophenyl)-6-(3-pyridinyl)thieno[2,3-b]pyridine-2-carboxamide]	2
CC(C)=CCN(C(=O)c1ccc2nc(-c3cccnc3)ccc2c1N)c1ccccc1 [Example 42, 5-Amino-N-phenyl-N-prenyl-2-(pyridin-3-yl)quinoline-6-carboxamide]	1

Next, values leading:

Activity value (score)	Compound
1	Nc1c(C(=O)Nc2ccc(C(F)(F)F)cc2)sc2nc(-c3cccnc3)ccc12 [Example 29, 3-amino-6-(3-pyridinyl)-N-(4-(trifluoromethyl)phenyl)thieno[2,3-b]pyridine-2-carboxamide]
1	C=C(C)CN(C(=O)c1sc2nc(-c3cccnc3)ccc2c1N)c1ccc(F)cc1 [Example 34, 3-amino-N-(4-fluorophenyl)-N-(2-methylprop-2-en-1-yl)-6-(3-pyridinyl)thieno[2,3-b]pyridine-2-carboxamide]
1	Nc1c(C(=O)Nc2cccc3ccccc23)sc2nc(-c3cccnc3)ccc12 [Example 24]
2	CCCN(C(=O)c1sc2nc(-c3cccnc3)ccc2c1N)c1ccccc1 [Example 10, N-n-propyl-3-amino-N-phenyl-6-(3-pyridinyl)thieno[2,3-b]pyridine-2-carboxamide]
1	C#CCN(C(=O)c1sc2nc(-c3cccnc3)ccc2c1N)c1ccc(F)cc1 [Example 35, 3-amino-N-(4-fluorophenyl)-N-(prop-2-yn-1-yl)-6-(3-pyridinyl)thieno[2,3-b]pyridine-2-carboxamide]
3	CC1(C)CCN(C(=O)c2sc3nc(-c4cccnc4)ccc3c2N)c2ccccc21 [Example 41]
1	Cc1cccc(C)c1NC(=O)c1sc2nc(-c3cccnc3)ccc2c1N [Example 25, 3-amino-N-(2,6-dimethylphenyl)-6-(3-pyridinyl)thieno[2,3-b]pyridine-2-carboxamide]
1	Nc1c(C(=O)N(CC=C2CCCC2)c2ccccc2)sc2nc(-c3cccnc3)ccc12 [Example 40, 3-amino-N-(2-cyclopentylideneethyl)-N-phenyl-6-(3-pyridinyl)thieno[2,3-b]pyridine-2-carboxamide]
2	Nc1c(C(=O)N2CCCc3ccccc32)sc2nc(-c3cccnc3)ccc12 [Example 3, (3-Amino-6-(3-pyridinyl)thieno[2,3-b]2-pyridinyl)(3,4-dihydro-1(2H)-quinolyl)methanone]
1	Nc1c(C(=O)Nc2ccc(I)cc2)sc2nc(-c3cccnc3)ccc12 [Example 27, 3-amino-N-(4-iodophenyl)-6-(3-pyridinyl)thieno[2,3-b]pyridine-2-carboxamide]
1	Nc1c(C(=O)Nc2ccc(OCc3ccccc3)cc2)sc2nc(-c3cccnc3)ccc12 [Example 26, 3-amino-N-[4-(benzyloxy)phenyl]-6-(3-pyridinyl)thieno[2,3-b]pyridine-2-carboxamide]
2	CC(C)=CCN(C(=O)c1sc2nc(-c3cccnc3)ccc2c1N)c1ccccc1 [Example 13, N-(3-methyl-2-butenyl)-3-amino-N-phenyl-6-(3-pyridinyl)thieno[2,3-b]pyridine-2-carboxamide]
